# Measured values from the supplement of paper PMC10307832.
# Key:
# Experiment in all cases: relative viability (nuclei count vs DMSO), 5 days (fraction); higher = more cells survive
# XMD13-2 + Luminespib = compound: C1CC1C(=O)NC2=NNC3=C2C=CC(=C3)C4=CC(=CC=C4)C(=O)NC5CC5 [XMD13-2] + CCNC(=O)c1noc(-c2cc(C(C)C)c(O)cc2O)c1-c1ccc(CN2CCOCC2)cc1 [Luminespib] (partner 0.01 µM)
# Outline: (§1)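 Five library-drug doses in √10 steps were combined with a fixed anchor-drug dose, or a single drug was given alone, by pin tool to lung cancer cell lines in 1536-well plates the day after seeding. Nuclei were stained and counted after 5 days. Relative viability is the nuclei count in treated wells over that in vehicle wells, taken as the median of duplicate plates.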
# [1] = compound: Cc1ccc(C(=O)Nc2cccc(C(F)(F)F)c2)cc1Nc1cncc(C(N)=O)c1 [ALW-II-49-7] + CC(=O)c1c(C)c2cnc(Nc3ccc(N4CCNCC4)cn3)nc2n(C2CCCC2)c1=O [Palbociclib] (partner 0.5 µM)
# Outline: as §1
# ALW-II-49-7 + Foretinib = compound: Cc1ccc(C(=O)Nc2cccc(C(F)(F)F)c2)cc1Nc1cncc(C(N)=O)c1 [ALW-II-49-7] + COc1cc2c(Oc3ccc(NC(=O)C4(C(=O)Nc5ccc(F)cc5)CC4)cc3F)ccnc2cc1OCCCN1CCOCC1 [Foretinib] (partner 0.25 µM)
# Outline: as §1
# XMD13-2 + AZD7762 = compound: C1CC1C(=O)NC2=NNC3=C2C=CC(=C3)C4=CC(=CC=C4)C(=O)NC5CC5 [XMD13-2] + NC(=O)Nc1cc(-c2cccc(F)c2)sc1C(=O)N[C@H]1CCCNC1 [AZD7762] (partner 0.2 µM)
# Outline: as §1
Cell Line,relative viability (XMD13-2 + Luminespib; first compound 0.05 µM),relative viability (XMD13-2 + Luminespib; first compound 0.1581 µM),relative viability (XMD13-2 + Luminespib; first compound 0.5 µM),relative viability (XMD13-2 + Luminespib; first compound 1.581 µM),relative viability (XMD13-2 + Luminespib; first compound 5 µM),relative viability ([1]; first compound 0.08 µM),relative viability ([1]; first compound 0.253 µM),relative viability ([1]; first compound 0.8 µM),relative viability ([1]; first compound 2.53 µM),relative viability ([1]; first compound 8 µM),relative viability (ALW-II-49-7 + Foretinib; first compound 0.08 µM),relative viability (ALW-II-49-7 + Foretinib; first compound 0.253 µM),relative viability (ALW-II-49-7 + Foretinib; first compound 0.8 µM),relative viability (ALW-II-49-7 + Foretinib; first compound 2.53 µM),relative viability (ALW-II-49-7 + Foretinib; first compound 8 µM),relative viability (XMD13-2 + AZD7762; first compound 0.05 µM),relative viability (XMD13-2 + AZD7762; first compound 0.1581 µM),relative viability (XMD13-2 + AZD7762; first compound 0.5 µM),relative viability (XMD13-2 + AZD7762; first compound 5 µM),relative viability (XMD13-2 + AZD7762; first compound 1.581 µM)
COR-L 105,0.867,0.852,0.704,0.749,0.789,0.391,0.333,0.41,0.421,0.423,1.02,0.949,0.992,0.99,1.23,,,,,
LCLC-97TM1,0.883,0.743,0.811,0.667,0.677,0.198,0.215,0.214,0.188,0.235,0.869,0.894,1.06,0.939,0.933,0.249,0.26,0.231,0.254,
NCI-H520,0.258,0.221,0.226,0.234,0.236,0.219,0.234,0.205,0.213,0.21,0.904,0.697,0.971,0.777,0.555,,,,,
NCI-H1993,1,0.663,0.833,0.801,1.09,0.717,0.717,0.571,0.705,0.684,0.7,0.852,0.797,0.756,0.892,0.926,0.595,0.387,0.791,0.63
NCI-H1437,1.16,1.14,1.1,1.04,1.19,0.288,0.318,0.286,0.34,0.315,1.35,1.26,1.2,1.26,1.16,1.24,1.14,1.18,1.17,1.09
NCI-H522,1.02,1.41,1.18,1.13,1.06,0.962,0.921,1.2,1.04,0.979,,,,,,1.08,0.728,0.7,0.692,0.737
NCI-H1563,0.521,0.526,0.527,0.536,0.506,,,,,,0.942,0.97,0.948,0.95,0.899,,,,,
NCI-H1703,,,,,,,,,,,0.271,0.407,0.306,0.308,0.352,0.124,0.131,0.125,0.116,
NCI-H661,0.904,0.907,0.904,0.953,0.725,0.384,0.443,0.39,0.384,0.404,1.17,1.08,0.954,1.01,0.884,,,,,
SK-MES-1,1.06,0.67,0.773,0.711,0.556,0.344,0.314,0.284,0.315,0.22,0.834,0.687,0.737,0.977,0.831,,,,,
